Assay results: patent publication US20210275516A1, “LACTATE ENHANCING COMPOUNDS AND USES THEREOF” (ECOLE POLYTECHNIQUE FEDERALE DE LAUSANNE (EPFL), priority 2018, published 2021)

Key:
[1] = test system: cerebral extracellular levels of lactate; assay: In vivo pharmacodynamics - lactate biosensors; set-up: species or system mouse; details: 3 h recording, freely moving mice, vs vehicle
Method: (§1) For pharmacodynamics (FIG. 4) and cognition (FIG. 6) experiments, adult male C57Bl/6J wild-type mice weighting 18-28 g (8 weeks of age) were used (Charles River). For ALS mouse models (FIG. 5), G93A SOD1 transgenic male and female mice on B6.SJL1-Gur/J background were used (Jackson Laboratory).
(§2) Animals were housed in groups of 3-5 in polypropylene cages (30×40×15 cm) with wire mesh top in a temperature (22±2° C.) and humidity (55±15%) controlled environment on a 12 hour light cycle (07.00-19.00 h lights on), except after surgeries when animal were housed individually. […]
Cerebral extracellular levels of lactate were monitored in vivo using lactate biosensors (Pinnacle Technology), according to the manufacturer's instructions. […] After surgery, mice were monitored closely and received analgesic treatment for at least 4 days. […] Concentrations of cerebral extracellular lactate were calculated from lactate probe electric signals using post-calibration values. […] Area Under the Curve (AUC) of lactate concentration curves were calculated using Graphad Prism and the ratio of AUC after drug over Vehicle administration was calculated.

[2] = test system: primary astrocytes; assay: Intracellular glycogen quantification in astrocytes; type: cell-based, mouse; details: 10 μM, 3 h, vs vehicle
Method: (§3) Primary cultures of cerebrocortical astrocytes were obtained from 1 to 2-day-old OF1 mouse pups (Charles River). Briefly, cortices were isolated and minced in small pieces under a dissecting microscope. The cells were incubated for 30 min at 37° C. in a solution containing 20 U/ml papain, 1 mM L-cysteine and 10 kU/ml DNase I. After dissociation, papain activity was stopped by the addition of fetal calf serum (FCS). Single-cell suspension was then obtained by mechanical dissociation, which consisted in cells trituration in a DMEM D7777 medium supplemented with 44 mm NaHCO3, 10 ml/L antibiotic/antimycotic solution and 10% FCS. […]
Astrocytes grown on 12-well plates were used for intracellular glycogen quantifications. […]
First, the amount of proteins in each sample was quantified to assess whether harvested astrocytes from primary cell cultures yielded enough and equivalent amounts of proteins on each replicates. Proteins were quantified using the micro BCA Protein Assay kit (Thermo Scientific), according to manufacturer's instructions. Next, intracellular glycogen concentrations were quantified using a 250 μl-aliquot of the same stimulated, thawed, and sonicated cell lysate. […] Fluorescence intensity (340 nm excitation/440 nm emission) was measured using a Safire 2 spectrophotometer. […]

[3] = test system: primary cultures of cerebrocortical astrocytes; assay: Extracellular lactate quantification (lactate release from primary astrocytes); type: cell-based; details: primary mouse astrocytes, 90 min
Method: as §3
Secretion of L-lactate was measured in the extracellular medium of 96-well plated astrocytes after 90 min stimulation (at 37° C., in 5% CO2/95% air conditions) with Vehicle (DMSO), the compounds of the invention (100 nM to 100 μM) or positive control. […] To quantify lactate concentrations in the extracellular medium, 200 μl of a 0.2M Glycine-semicarbazide buffer (pH 10) containing 3 mM NAD and 14 U/ml LDH was added to each well of a 96-well plate containing 30 μl aliquots of extracellular medium. […] Fluorescence intensity (340 nm excitation/450 nm emission), which represents the amount of NADH produced, was measured, and lactate concentration values were determined relative to a standard curve of L-lactate concentrations. […]

[4] = test system: G93A SOD1 mouse model of ALS; assay: SOD1 G93A mouse ALS model - survival; type: in vivo; details: 10 mg/kg orally every day from post-natal day 30 to final stage, G93A SOD1 mice, vs vehicle
Method: as §1, §2
(§4) Transgenic mice on B6.SJL1-Gur/J background overexpressing the human mutated gene G93A SOD1 were used. […] F1 pups were genotyped after ear punching at weaning, using quantitative PCR (qPCR), which allowed determining the number of SOD1 copies in each mouse.
(§5) To test for the potential therapeutic effect of the administered compound, SOD1 mice were given orally the compound of the invention (10 mg/kg) or vehicle every day from post-natal day 30 (weaning) throughout their entire life. […] Each mouse's weight was recorded every day throughout the entire treatment, while neuromuscular function was measured once a week. […]

[5] = test system: G93A SOD1 mouse model of ALS; assay: SOD1 G93A mouse ALS model - grip test; type: in vivo; details: vs vehicle
Method: as §1, §2, §4, §5

[6] = test system: C57Bl/6 wild-type mice; assay: Long-term memory test - inhibitory avoidance (IA); type: in vivo, mouse; details: 100 mg/kg oral single dose 20 min before training
Method: as §1
Animals were housed in groups of 3-5 in polypropylene cages (30×40×15 cm) with wire mesh top in a temperature (22±2° C.) and humidity (55±15%) controlled environment on a 12 hour light cycle (07.00-19.00 h lights on), except after surgeries when animal were housed individually. The samples (Vehicle or compounds of the invention) were administered per os (gavage) in a solution made of water supplemented with 0.4% hydroxypropyl methylcellulose (HPMC) Methocel 4KM (w/v) and 0.25% Tween-20 (v/v), as previously described (Thackaberry et al., 2010, Toxicol Sci., 117(2):485-92). Concentrations of the compounds tested ranged from 10 to 100 mg/kg.
IA test is a well-established memory paradigm in rodents that measures contextual memory associated with a mild electrical footshock in a specific context (the dark compartment of the IA chamber). Groups of 8-week old C57Bl/6 wild-type […] mice were tested. Each mouse was handled for 5 minutes per day for at least 4 consecutive days to reduce animal's stress due to experimenter's presence/manipulation during test days. Inhibitory avoidance was carried out in an IA chamber (MedAssociates) that consists in a rectangular Perspex box divided into a safe and a shock compartment separated by an automatically operated sliding door. The safe compartment is white and illuminated while the shock compartment is black and dark. Mice were trained for IA 20 min after oral administration of the drug or vehicle. During training, mice were placed into the safe compartment with their heads facing away from the door. […] Memory retention was measured at 24 h or 3 weeks after training by placing the mouse back into the lit compartment and recording its latency (in seconds) to enter the dark compartment. […]

[7] = test system: primary astrocytes; assay: MTT mitochondrial activity assay in astrocytes; type: cell-based, mouse; details: 24 h, maximum concentration (200 μM)
Method: Primary cultures of cerebrocortical astrocytes were obtained from 1 to 2-day-old OF1 mouse pups (Charles River). Briefly, cortices were isolated and minced in small pieces under a dissecting microscope. The cells were incubated for 30 min at 37° C. in a solution containing 20 U/ml papain, 1 mM L-cysteine and 10 kU/ml DNase I. After dissociation, papain activity was stopped by the addition of fetal calf serum (FCS). Single-cell suspension was then obtained by mechanical dissociation, which consisted in cells trituration in a DMEM D7777 medium supplemented with 44 mm NaHCO3, 10 ml/L antibiotic/antimycotic solution and 10% FCS. The cells were seeded at an average density of 6×10^4 cells/cm^2 on poly-D-lysine-coated 96- or 12-well culture plates, depending on their use, and grown in DMEM D7777 medium supplemented with 44 mm NaHCO3, 10 ml/L antibiotic/antimycotic solution and 10% FCS at 37° C. in a humidified atmosphere containing 5% CO2/95% air. Culture medium was renewed twice a week. Cells were stimulated and harvested between DIV14 and DIV17, when confluence and cell growth were optimal.
To monitor mitochondrial activity in astrocytes, which is linked to the metabolic process of glycolysis and production of lactate, astrocytes in 96-well plates were stimulated for 24 h (37° C. 5% CO2/95% air) with the compounds of the invention ranging from 0.2 to 200 μM. After stimulation, 5 mg/ml thiazol blue tetrazolium bromide (MTT) in D5030 medium complemented with 5 mM D-glucose and 44 mM sodium bicarbonate (pH 7.2) was added to each well, and cells were incubated for 4 h at 37° C. (5% CO2). The medium was then removed and the amount of reduced MTT, i.e formazan, solubilized in DMSO (50 μl/well) was determined using a spectrophotometer (absorbance of 570 nm).
The mitochondrial activity in primary astrocytes treated with Compounds (2) to (4) at concentrations ranging from 1 nM to 200 μM. After 24 h, mitochondrial activity was monitored in MTT colorimetric assay as described above (FIG. 3).

COc1cc2ccnc(Nc3ccc(OC(F)(F)F)cc3)c2cc1OC [Compound 1, 6,7-dimethoxy-N-(4-(trifluoromethoxy)phenyl)isoquinolin-1-amine]
Extracellular lactate levels in the brain ([1]; 10 mg/kg per os): significantly increases extracellular lactate levels | Extracellular lactate levels in the brain ([1]; 100 mg/kg per os): significantly increases extracellular lactate levels | Degradation of intracellular glycogen [2]: significantly enhances the degradation of intracellular glycogen | Concentration at which the effect on lactate release is already significant [3]: below 1 μM | Life span (Kaplan-Meier survival) [4]: significantly increased life span | Onset of symptoms (grip test) ([5]; 10 mg/kg orally every day from post-natal day 30, G93A SOD1 mice): delayed the onset of the symptoms | Muscle function (grip test) ([5]; 10 mg/kg orally every day from post-natal day 30, measured weekly until 16 weeks of age): remained significantly improved | Latency to enter the dark compartment at training [6]: same latencies at training | Latency to enter the dark compartment, 3 weeks after training ([6]; vs vehicle): significantly higher | Latency to enter the dark compartment, 24 h after training ([6]; vs vehicle): significantly higher | Remaining mitochondrial activity at maximum concentration compared to vehicle [7]: 8.05%

COc1cc2ccnc(Nc3ccc(C(F)(F)F)cc3)c2cc1OC [Compound 2, 6,7-dimethoxy-N-(4-(trifluoromethyl)phenyl)isoquinolin-1-amine]
Remaining mitochondrial activity at maximum concentration compared to vehicle [7]: 7.86%

COc1cc2ccnc(Cc3ccc(OC(F)(F)F)cc3)c2cc1OC [Compound 4, 6,7-dimethoxy-1-(4-(trifluoromethoxy)benzyl)isoquinoline]
Remaining mitochondrial activity at maximum concentration compared to vehicle [7]: 77.3%

FC(F)(F)Oc1ccc(Nc2nccc3ccccc23)cc1 [Compound 3, N-(4-(trifluoromethoxy)phenyl)isoquinolin-1-amine]
Remaining mitochondrial activity at maximum concentration compared to vehicle [7]: 35.9%
